According to US10010574B2, “Silk peptide for improving neuroprotective and neurofunctional effects and a method of its preparation” (BRAINGUARD CO., LTD., priority 2004, dated 2018):

Tested on: depression animal model
Assay: Forced swimming test (depression animal model)
Type: in vivo, Sprague Dawley rats
Details: P<0.05
Description: Four Sprague Dawley rats (140-180 g, Dae Han BioLink Co., Korea) each box were placed under constant condition (temperature: 25±1° C., relative humidity: 60±10%), and fed with unlimited water and food for 1 week. Fifty rats were selected for experiment among the rats by excluding ones that were undeveloped, show less motion or abnormal behavior in forced swimming test.
As a standard method for behavioral despair test, a forced swimming test (FST) was used in this experiment, which is known as principal test for verify anti-depression efficacy.
A rat was placed for 15 minutes in a transparent cylindrical water tank with 40 cm of height and 18 cm of diameter, which was filled with 15 cm deep water. […] The immobilization state typically refers to a state that a rat pushes only its head above the surface and was in a minimum motion for keeping itself afloat. After forced swimming test, the rat was dried at 37° C. for 30 minutes and returned to the box.
After 24 hours, the second forced swimming was performed for 5 minutes under the same condition with the first forced swimming test, and total immobilization time was measured. […] The immobilization time was measured by recording total process of the forced swimming and comparing between the control group and the experiment group. Values measured by 3 different analyzers were averaged and used as an analysis data. […]

## CN(C)CCCN1c2ccccc2CCc2ccccc21 [imipramine]
Oral one time a day for 7 days, FIG. 23
  Average immobilization time, 7-day repeated administration: significantly decreased
Silk peptide 1 g/kg oral, imipramine 20 mg/kg, 1 hour before second forced swimming, FIG. 22
  Average immobilization time, one time urgent administration: significantly decreased
